The source of these data is patent publication US20120015887A1, “SYNTHETIC PEPTIDE AND USES THEREOF” (priority 2009, published 2012).

Each structure is given as a SMILES string. Bridge positions count the residues as written; N and C are the ends. Side chains are listed from the residue outwards. Peptide text beside a SMILES is read from it. I, II: the chains in the order shown.

For data set [1] the following is noted: in vivo.
Data set [2] in a line: Body weight, spleen weight and tolerability in Kunming mice with transplanted H22 tumor. The settings on record: for Weight of spleen / Average weight (X ± S, g) End / Average weight (X ± S, g) Start: 2 mg/kg, ip × 5; for Weight of spleen: end of test; for Average weight (X ± S, g) End: End of test; for Average weight (X ± S, g) Start: Start of test.
[3] abbreviates: The 3rd day after administration, 2 mg/kg ip.
Where [4] appears, read: The 5th day after administration, 2 mg/kg ip.
Setting [5] is: The 7th day after administration, 2 mg/kg ip.
Where [6] appears, read: The 9th day after administration, 2 mg/kg ip.
The mark [7] stands for this setting: The 11th day after administration, 2 mg/kg ip.

In the case of `C[C@@H](O)[C@H](N)C(=O)N[C@@H](CCCCN)C(=O)N1CCC[C@H]1C(=O)N[C@@H](CCCNC(=N)N)C(=O)NCCCC[C@H](NC(=O)[C@H](CCCNC(=N)N)NC(=O)[C@@H]1CCCN1C(=O)[C@H](CCCCN)NC(=O)[C@@H](N)[C@@H](C)O)C(=O)NCCCC[C@H](NC(=O)[C@H](CCCCNC(=O)[C@H](CCCNC(=N)N)NC(=O)[C@@H]1CCCN1C(=O)[C@H](CCCCN)NC(=O)[C@@H](N)[C@@H](C)O)NC(=O)[C@H](CCCNC(=N)N)NC(=O)[C@@H]1CCCN1C(=O)[C@H](CCCCN)NC(=O)[C@@H](N)[C@@H](C)O)C(=O)O` [(TKPR)4>K2>K, reference compound] (I: H-TKPRK([Arg-Pro-Lys-Thr])K-OH / II: H-TKPRK([Arg-Pro-Lys-Thr]); amide I:6-II:C), the “Abnormity or side effect in test chickens” value (“Abnormity or side effect” for short) in data set [1] was “no abnormity or side effect”.

With `C[C@@H](O)[C@H](N)C(=O)N[C@@H](CCCCN)C(=O)N1CCC[C@H]1C(=O)N[C@@H](CCCNC(=N)N)C(=O)NCCCC[C@H](NC(=O)[C@H](CCCNC(=N)N)NC(=O)[C@@H]1CCCN1C(=O)[C@H](CCCCN)NC(=O)[C@@H](N)[C@@H](C)O)C(=O)NCCCC[C@H](NC(=O)[C@H](CCCCNC(=O)[C@H](CCCNC(=N)N)NC(=O)[C@@H]1CCCN1C(=O)[C@H](CCCCN)NC(=O)[C@@H](N)[C@@H](C)O)NC(=O)[C@H](CCCNC(=N)N)NC(=O)[C@@H]1CCCN1C(=O)[C@H](CCCCN)NC(=O)[C@@H](N)[C@@H](C)O)C(=O)NCC(=O)O` [(TKPR)4>K2>K-G] (I: H-TKPRK([Arg-Pro-Lys-Thr])KG-OH / II: H-TKPRK([Arg-Pro-Lys-Thr]); amide I:6-II:C), the “Abnormity or side effect” value in data set [1] is listed as “no abnormity or side effect”. The “Body weight growth compared with the blank control group” value in data set [2] (2 mg/kg ip, test duration) is recorded as “the same as that of the blank control group”. Moreover, in data set [2] (2 mg/kg ip, test duration), the “Death / acute toxicity in tumor-bearing mice” value is recorded as “no acute toxicity reactions occurred”. The “Side effect in tumor-bearing mice” value in data set [2] (2 mg/kg ip, test duration) is given as “no obvious side effect”. In data set [2], this compound had a Weight of spleen of 0.31 ± 0.08 g. Also, the “Average weight (X ± S, g) End” value in data set [2] was 30.6 ± 3.2 g. The “Average weight (X ± S, g) Start” value in data set [2] was 14.8 ± 0.8 g. The Body weight/g in data set [2] (setting [3]) is 19.6 ± 0.8 g; in data set [2] (setting [4]), 23.3 ± 1.0 g; in data set [2] (setting [5]), 26.2 ± 1.9 g; in data set [2] (setting [6]), 28.5 ± 2.5 g; in data set [2] (setting [7]), 30.6 ± 3.2 g; in data set [2] (The day without administration), 14.8 ± 0.8 g.

In the case of `C[C@@H](O)[C@H](N)C(=O)N[C@@H](CCCCN)C(=O)N1CCC[C@H]1C(=O)N[C@@H](CCCNC(=N)N)C(=O)NCCCC[C@H](NC(=O)[C@H](CCCNC(=N)N)NC(=O)[C@@H]1CCCN1C(=O)[C@H](CCCCN)NC(=O)[C@@H](N)[C@@H](C)O)C(=O)NCCCC[C@H](NC(=O)[C@H](CCCCNC(=O)[C@H](CCCNC(=N)N)NC(=O)[C@@H]1CCCN1C(=O)[C@H](CCCCN)NC(=O)[C@@H](N)[C@@H](C)O)NC(=O)[C@H](CCCNC(=N)N)NC(=O)[C@@H]1CCCN1C(=O)[C@H](CCCCN)NC(=O)[C@@H](N)[C@@H](C)O)C(=O)N[C@H](C(=O)N[C@@H](CCCCN)C(=O)N1CCC[C@H]1C(=O)N[C@@H](CCCNC(=N)N)C(=O)O)[C@@H](C)O` [(TKPR)4>K2>K-TKPR] (I: H-TKPRK([Arg-Pro-Lys-Thr])KTKPR-OH / II: H-TKPRK([Arg-Pro-Lys-Thr]); amide I:6-II:C), the “Abnormity or side effect” value in data set [1] is listed as “no abnormity or side effect”.

`C[C@@H](O)[C@H](N)C(=O)N[C@@H](CCCCN)C(=O)N1CCC[C@H]1C(=O)N[C@@H](CCCNC(=N)N)C(=O)O` [TKPR, Thr-Lys-Pro-Arg, reference compound] (H-TKPR-OH): the Weight of spleen in data set [2] amounted to 0.32 ± 0.09 g. Besides, the “Average weight (X ± S, g) End” value in data set [2] is on record as 29.6 ± 1.7 g. Also, the “Average weight (X ± S, g) Start” value in data set [2] is 15.2 ± 0.7 g. For the same compound, the Body weight/g stood at 18.9 ± 0.7 g in data set [2] (setting [3]); 21.5 ± 1.1 g in data set [2] (setting [4]); 24.4 ± 1.3 g in data set [2] (setting [5]); 27.0 ± 1.5 g in data set [2] (setting [6]); 29.6 ± 1.7 g in data set [2] (setting [7]); 15.2 ± 0.7 g in data set [2] (The day without administration).
